Experimental findings from patent US7241737B2, “Urotensin-II agonists and antagonists” (priority 2000, dated 2007) are described below.

Entries after “also recorded” stand apart in the source; their conditions may differ. Bridge positions count the residues as written; N and C are the ends. Ends that are not written are not given here.

Experiment [1] concerns rat aorta contraction. The experiment can be described thus: Peptide-induced contraction of rat aorta rings (agonist activity). The protocol:
Male Sprague-Dawley rats (250-350 g), which had been quarantined for 5-7 days prior to the experiments, were sacrificed by decapitation (experiments were approved by the Advisory Committee For Animal Resources, Tulane University School of Medicine). The thoracic aorta was dissected, freed from connective tissue, and cut into rings of about 1.5 mm in width. The rings were suspended in a 15 ml organ bath containing high potassium Kreb's solution (9.15 g/L potassium chloride, 2.1 g/L sodium bicarbonate, 1.0 g/L glucose, 0.16 g/L potassium phosphate monobasic, 0.14 g/L magnesium sulfate (anhydr.), and 0.22 g/L calcium chloride (dihydr.))
Optimal tension was applied (0.2 g) to the tissues and the bath medium was maintained at 37° C. and bubbled with a mixture of 95% O2/5% CO2. […] Changes in arterial smooth muscle tension were recorded isometrically using a force-displacement transducer (Radnoti), and a AcqKnowledge ACK100 Version 3.2 (BIOPAC Systems, Inc., Santa Barbara, Calif.)
In siliconized glass tubes, peptides were dissolved in dionized water at a concentration of 1 μg/1 μL (stock solution) and then diluted 1:10 with sterile BSA-saline solution (0.1% BSA, fraction V, Sigma, St. Louis in 0.9% NaCl). […] Peptide-induced changes in tension of the aorta rings were recorded by force-displacement transducers and processed by the computer system BIOPAC Inc., as described above. […]

In experiment [2] the target is T1, U-II receptors (Rattus norvegicus, UniProt P49684).
T1 construct: from tissue; host or cells: rat thoracic aorta (circular strips / rings)
T1 sequence (P49684 1-386): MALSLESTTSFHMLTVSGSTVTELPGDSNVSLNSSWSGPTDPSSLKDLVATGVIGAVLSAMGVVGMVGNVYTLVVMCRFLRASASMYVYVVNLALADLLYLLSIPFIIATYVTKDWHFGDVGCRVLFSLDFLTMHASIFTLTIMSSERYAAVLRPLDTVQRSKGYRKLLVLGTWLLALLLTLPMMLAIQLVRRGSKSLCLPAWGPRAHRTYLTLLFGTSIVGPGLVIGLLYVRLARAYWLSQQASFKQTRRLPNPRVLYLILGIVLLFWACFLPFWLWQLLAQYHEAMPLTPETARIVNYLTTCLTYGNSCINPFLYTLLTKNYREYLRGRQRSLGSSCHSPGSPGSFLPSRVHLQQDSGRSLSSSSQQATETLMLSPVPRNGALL
As to the kind of experiment: Binding to U-II receptors (rat aorta tissue).

For “Asp-c[Cys-Phe-Trp-Lys-Tyr-Cys]-Val-OH (DCFWKYCV-OH; disulfide 2-7 (inferred))”, the “potency in inducing rat aorta contraction relative to full human and fish U-II” value in experiment [1] was “greater potency than the full human and fish U-II sequences; also recorded: more potent than the full human and fish sequences”. In addition, the “potency in binding to rat aorta tissue relative to full human and fish U-II” value in experiment [2] is “greater potency than the full human and fish U-II sequences”.
